Reference: paper PMC4316792, “The dehydrogenase region of the NADPH oxidase component Nox2 acts as a protein disulfide isomerase (PDI) resembling PDIA3 with a role in the binding of the activator protein p67^phox” (Frontiers in Chemistry, 2015)
Bridges are numbered along the chain shown (N, C = ends). The star is where a group is joined. Biotin = O=C1N[C@H]2[C@H](CS[C@H]2CCCCC(=O)*)N1

Legend:
[1] = system: p67^phox(1–212); assay: Peptide–protein binding assay, p67phox(1–212); settings: native (non-disulfide) peptide
[2] = system: p67^phox(1–526); assay: Peptide–protein binding assay, p67phox(1–526); settings: native (non-disulfide) peptide
[3] = system: recombinant 6His-p67^phox; assay: Peptide–protein binding assay / peptide walking, p67phox; settings: statement of Results section
[4] = PDI reductase activity, DE-GSSG reduction; format: biochemical; settings: for PDI activity of isolated Nox2 peptides: DE-GSSG reduction over a wide concentration range
[5] = system: recombinant 6His-p67^phox; settings: manuscript in preparation, cited from earlier work; for binding of p67phox to overlapping 15-mer peptides (peptide walking): ref Dahan and Pick; for binding of p67phox after introduction of intramolecular disulfide bond between C369 and C371 / binding of p67phox after reduction of the disulfide bond and alkylation of the reduced thiols: ref Fradin et al., [2011], [2012], Pick, Fradin and Pick
From the text: The cytosolic segment of Nox2 is also known as the dehydrogenase region (DHR) by virtue of the fact that it contains the NADPH- and FAD-binding sites and is homologous to the prokaryotic protein ferredoxin-NADP^+ reductase. The DHR comprises binding sites for p47^phox and Rac but, so far, there is no solid evidence for the identity of the binding site(s) for p67^phox. We approached this question by applying the “peptide walking” methodology (Joseph and Pick, [1995]; Dahan et al., [2012]; Dahan and Pick, [2012]). […] An important observation was that enhanced binding of p67^phox was evident only when the disulfide bond was established between two non-adjacent cysteines and between cysteines present in the same peptide; when the CGC tria ...

[6] = system: NADPH oxidase; parameters: method as in 8 sources, one per row (each row's own in cited_ref): ref Shpungin et al., [1989] ||| ref Bellavite et al., [1983]; Gabig and Lefker, [1984] ||| ref Pick et al., [1987] ||| ref Le Cabec and Maridonneau-Parini, [1995] ||| ref Nishida et al., [2005] ||| ...; settings: ref Paes et al., [2011], cited from earlier work
[7] = system: p67^phox(1–526); assay: Effect of thiol reagents on binding of p67phox(1–526) to Nox2 peptide 24; settings: 1 h room temperature
[8] = biological target: NADPH oxidase (macrophage membrane liposomes, cytochrome b558) (Cavia porcellus, UniProt H0UXC6); format: biochemical, guinea pig
[9] = system: oxidized insulin; assay: Insulin reduction (turbidimetric) assay; format: biochemical; settings: recombinant PDI
[10] = biological target: T1, p67^phox(1–212) (UniProt P19878 1-212); assay: ELISA; peptide—protein binding assay as a1, with peptide 24 and the modified peptides, all in the reduced form, subjected to oxidation by 1 mM H2O2; settings: both partners purified
T1 construct: contains four cysteines (40, 45, 121, 165); source: E. coli, purified (Nickel Sepharose); not shown: 6His, N-terminal, kept
T1 sequence (looked up): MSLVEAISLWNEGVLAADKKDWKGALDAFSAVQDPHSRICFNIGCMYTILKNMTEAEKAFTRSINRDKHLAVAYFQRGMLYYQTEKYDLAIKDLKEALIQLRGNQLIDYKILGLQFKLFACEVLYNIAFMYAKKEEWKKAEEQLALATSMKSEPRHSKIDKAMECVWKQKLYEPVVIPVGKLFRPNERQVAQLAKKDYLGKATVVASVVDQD

[11] = system: p67^phox(1–526); assay: Protein–protein binding assay, p67phox(1–526); settings: homodimers, 0.5 μM, p67phox coated at 0.5 μM; one characteristic experiment (Figure 5A)
[12] = system: p67^phox(1–212); assay: Protein–protein binding assay, p67phox(1–212); settings: homodimers, 0.5 μM, p67phox coated at 0.5 μM; one characteristic experiment (Figure 5B)

peptide 28: 15-mer Nox2 peptide, residues 369–383, CGC triad at N-terminus (CGCDKQEFQDAWKLP; UniProt P04839 369-383, looked up, fragment)
binding of p67phox(1–212) [1]: low affinity | binding of p67phox(1–526) [2]: low affinity | increase in binding of p67phox on introduction of intramolecular disulfide bond linking C369 and C371 [3]: marked increase | PDI activity of isolated Nox2 peptides [4]: No PDI activity | binding of p67phox to overlapping 15-mer peptides (peptide walking) [5]: binds preferentially | binding of p67phox after introduction of intramolecular disulfide bond between C369 and C371 [5]: marked increase | binding of p67phox after reduction of the disulfide bond and alkylation of the reduced thiols [5]: totally abolished

NC(=O)C1=CN([C@@H]2O[C@H](COP(=O)(O)OP(=O)(O)OC[C@H]3O[C@@H](n4cnc5c(N)ncnc54)[C@H](OP(=O)(O)O)[C@@H]3O)[C@@H](O)[C@H]2O)C=CC1 [NADPH]
replacement of DTT in the DE-GSSG reduction assay ([4]; up to 125 μM): could not be replaced

oxidized PDI: exogenous oxidized PDI
effect of exogenous PDI on oxidase activation in vitro [6]: enhance

CN(C)C(=O)/N=N/C(=O)N(C)C [diamide]
effect of pretreatment of p67phox on low affinity binding to native form of peptide 24 ([7]; NEM 0.1 mM or diamide 5 mM, three experiments (Figure 2A,B)): suppressed | effect of diamide pretreatment of p67phox on binding to peptide 24 in the disulfide form ([7]; p67^phox(1–526) 1.5 μM, diamide 5 mM, three experiments (Figure 2B)): totally abolished

16F16
inhibition of oxidase activation, in words [8]: Lack of an inhibitory effect

reduced PDI: exogenous reduced PDI
effect of exogenous PDI on oxidase activation in vitro [6]: diminish

IVGDWTEGLFNACGC [peptide 24, 15-mer Nox2 peptide, residues 357–371, CGC triad at C-terminus]
binding of p67phox(1–212) [1]: low affinity | binding of p67phox(1–526) [2]: low affinity | increase in binding of p67phox on introduction of intramolecular disulfide bond linking C369 and C371 [3]: marked increase | PDI activity of isolated Nox2 peptides [4]: No PDI activity | binding of p67phox to overlapping 15-mer peptides (peptide walking) [5]: binds preferentially | binding of p67phox after introduction of intramolecular disulfide bond between C369 and C371 [5]: marked increase | binding of p67phox after reduction of the disulfide bond and alkylation of the reduced thiols [5]: totally abolished

PDIA1: Recombinant PDI A1 (human), made in E. coli [reference compound]
Vmax, PDI reductase activity (Figure 7C,D) ([4]; 10 nM, DE-GSSG 0.8 μM, DTT 12.5 μM, pH 7.0, 24°C, mean ± SEM of 4 (PDIA1), 3 (PDIA3) experiments): 37,303 ± 1279 | reductase activity relative to NusA-Nox2(357–570) ([4]; extrapolation of Vmax at 10 nM PDI to Vmax with 1 μM NusA-Nox2(357–570)): about 75 times | concentration down to which activity could be measured in insulin reduction assay [9]: 10 nM

B1: NusA-Nox2(372–570): fusion protein of NusA and Nox2 residues 372–570, lacks the CGC triad (protein)
chain: DKQEFQDAWKLPKIAVDGPFGTASEDVFSYEVVMLVGAGIGVTPFASILKSVWYKYCNNATNLKLKKIYFYWLCRDTHAFEWFADLLQLLESQMQERNNAGFLSYNIYLTGWDESQANHFAVHHDEEKDVITGLKQKTLYGRPNWDNEFKTIASQHPNTRIGVFLCGPEALAETLSKQSISNSESGPRGVHFIFNKENF
modifications: left off: NusA (E. coli), N-terminal, kept | His tag (from the purification on Nickel Sepharose), end not stated, state not stated
notes: fusion protein of NusA and Nox2 residues 372–570, lacks the CGC triad
loss of PDI activity ([4]; 2 μM (Figure 6C)): almost complete loss of PDI activity | Vmax, PDI reductase activity (Figure 6C) ([4]; 2 μM, DE-GSSG 800 nM, DTT 12.5 μM, one characteristic experiment, DTT only 26,248): 31,920 milli relative fluorescence units per min

B2: scrambled RNAse: ribonuclease A, with scrambled disulfide bonds from bovine pancreas (protein, UniProt P61823 27-150, looked up)
Ribonuclease pancreatic: KETAAAKFERQHMDSSTSAASSSNYCNQMMKSRNLTKDRCKPVNTFVHESLADVQAVCSQKNVACKNGQTNCYQSYSTMSITDCRETGSSKYPNCAYKTTQANKHIIVACEGNPYVPVHFDASV
modifications: scrambled disulfide bonds
notes: ribonuclease A, with scrambled disulfide bonds from bovine pancreas
IC50, NADPH oxidase activation [8]: could not be determined | inhibition of oxidase activation, in words [8]: ineffective | inhibition of oxidase activation, amphiphile-dependent cell-free system ([6]; neutrophil membranes and recombinant cytosolic components): inhibit oxidase activation

B3: Nox2 peptide 24 (357–371) with an intramolecular disulfide bond between C369 and C371 (peptide)
peptide: Biotin-SGSGIVGDWTEGLFNACGC-NH2
modifications: disulfide 17-19
SMILES: CC[C@H](C)[C@H](NC(=O)CNC(=O)[C@H](CO)NC(=O)CNC(=O)[C@H](CO)NC(=O)CCCC[C@@H]1SC[C@@H]2NC(=O)N[C@@H]21)C(=O)N[C@H](C(=O)NCC(=O)N[C@@H](CC(=O)O)C(=O)N[C@@H](Cc1c[nH]c2ccccc12)C(=O)N[C@H](C(=O)N[C@@H](CCC(=O)O)C(=O)NCC(=O)N[C@@H](CC(C)C)C(=O)N[C@@H](Cc1ccccc1)C(=O)N[C@@H](CC(N)=O)C(=O)N[C@@H](C)C(=O)N[C@H]1CSSC[C@@H](C(N)=O)NC(=O)CNC1=O)[C@@H](C)O)C(C)C
notes: spacer between the N-terminal biotin and the peptide, printed as Ser-Gly-Ser-Gly; also called 24N CGC S-S; 24N S-S; source: synthetic peptide (Mimotopes or Bachem), synthesized in the disulfide form; also made from the reduced peptide by oxidation with 1 mM H2O2; not shown: biotin, N-terminal, kept
binding result [10]: binds

B4: Nox2 peptide 24 analog with CGC replaced by CysGlyProCys, intramolecular disulfide bond between cysteines 369 and 372 (peptide)
peptide: Biotin-SGSGIVGDWTEGLFNACGPC-NH2
modifications: disulfide 17-20
SMILES: CC[C@H](C)[C@H](NC(=O)CNC(=O)[C@H](CO)NC(=O)CNC(=O)[C@H](CO)NC(=O)CCCC[C@@H]1SC[C@@H]2NC(=O)N[C@@H]21)C(=O)N[C@H](C(=O)NCC(=O)N[C@@H](CC(=O)O)C(=O)N[C@@H](Cc1c[nH]c2ccccc12)C(=O)N[C@H](C(=O)N[C@@H](CCC(=O)O)C(=O)NCC(=O)N[C@@H](CC(C)C)C(=O)N[C@@H](Cc1ccccc1)C(=O)N[C@@H](CC(N)=O)C(=O)N[C@@H](C)C(=O)N[C@H]1CSSC[C@@H](C(N)=O)NC(=O)[C@@H]2CCCN2C(=O)CNC1=O)[C@@H](C)O)C(C)C
notes: spacer between the N-terminal biotin and the peptide, printed as Ser-Gly-Ser-Gly; also called 24N CGPC S-S (disulfide form); source: synthetic peptide (Mimotopes or Bachem), synthesized in the disulfide form; also made from the reduced peptide by oxidation with 1 mM H2O2; not shown: biotin, N-terminal, kept
binding result [10]: binds

B5: Nox2 peptide 24 analog with CGC replaced by CysGlyHisCys, intramolecular disulfide bond between cysteines 369 and 372 (peptide)
peptide: Biotin-SGSGIVGDWTEGLFNACGHC-NH2
modifications: disulfide 17-20
SMILES: CC[C@H](C)[C@H](NC(=O)CNC(=O)[C@H](CO)NC(=O)CNC(=O)[C@H](CO)NC(=O)CCCC[C@@H]1SC[C@@H]2NC(=O)N[C@@H]21)C(=O)N[C@H](C(=O)NCC(=O)N[C@@H](CC(=O)O)C(=O)N[C@@H](Cc1c[nH]c2ccccc12)C(=O)N[C@H](C(=O)N[C@@H](CCC(=O)O)C(=O)NCC(=O)N[C@@H](CC(C)C)C(=O)N[C@@H](Cc1ccccc1)C(=O)N[C@@H](CC(N)=O)C(=O)N[C@@H](C)C(=O)N[C@H]1CSSC[C@@H](C(N)=O)NC(=O)[C@H](Cc2c[nH]cn2)NC(=O)CNC1=O)[C@@H](C)O)C(C)C
notes: spacer between the N-terminal biotin and the peptide, printed as Ser-Gly-Ser-Gly; also called 24N CGHC S-S (disulfide form); source: synthetic peptide (Mimotopes or Bachem), synthesized in the disulfide form; also made from the reduced peptide by oxidation with 1 mM H2O2; not shown: biotin, N-terminal, kept
binding result [10]: binds

B6: NusA-Nox2(328–570): fusion protein of NusA and Nox2 residues 328–570 (protein)
chain: KCPKVSKLEWHPFTLTSAPEEDFFSIHIRIVGDWTEGLFNACGCDKQEFQDAWKLPKIAVDGPFGTASEDVFSYEVVMLVGAGIGVTPFASILKSVWYKYCNNATNLKLKKIYFYWLCRDTHAFEWFADLLQLLESQMQERNNAGFLSYNIYLTGWDESQANHFAVHHDEEKDVITGLKQKTLYGRPNWDNEFKTIASQHPNTRIGVFLCGPEALAETLSKQSISNSESGPRGVHFIFNKENF
modifications: left off: NusA (E. coli), N-terminal, kept | His tag (from the purification on Nickel Sepharose), end not stated, state not stated
binding of NusA-Nox2 to p67phox(1–526) [11]: significant binding | binding of NusA-Nox2 to p67phox(1–212) [12]: significant binding
